Our source for the melting point values is a melting point compilation (Tetko et al.; mined from patent text by program, amines drawn as free bases though some values may be those of a salt).

Broadly, the melting point is the temperature of the solid-liquid transition.

SMILES strings stand for the structures.

With `O=CNC(CC(=O)O)c1ccccc1` (configuration not stated), the melting point is 135 to 136 °C.

In turn, `O=S(=O)(NCCO)c1ccc(-c2ccc(S(=O)(=O)NCCO)cc2)cc1` yielded a melting point of 203 to 206 °C.

In the case of `N#Cc1ccccc1-c1ccc(CNc2cc(Cl)nc3ccnn23)cc1`, the melting point lay in the range of 162 to 163 °C.

`COC(=O)COc1ccc2c(c1)Oc1cc(O)ccc1C21OC(=O)c2ccccc21` (configuration not stated) yielded a melting point of 236 °C.

Compound `CCOP(=O)(/C=C/c1nc(-c2ccccc2)oc1COc1ccc(OCc2nc(-c3ccccc3)oc2C)cc1)OCC` yielded a melting point of 124 to 125 °C.

`CCOC(=O)C1=C(COCCN)NC(C)=C(C(=O)OC)C1c1cccc(C(F)(F)F)c1Cl` (configuration not stated) had a melting point of 122 °C.

Take `CCCCNC(=O)c1cc(C(C)(C)C)c(O)c(C(C)(C)C)c1`: the melting point lay within 181 to 183 °C.

`Nc1ccccc1C(=O)C=Cc1ccncc1`: the melting point came to 168 °C.

`CC1(C)CCC(C)(C)c2cc(-c3cc(-c4ccc(C(=O)OCc5ccccc5)cc4)ccc3O)ccc21` displayed a melting point of 90 to 91 °C.

In the case of `N#Cc1ccc(-c2cnc3[nH]c(=O)n(CC4CCCCC4)c3n2)cc1`, the melting point lay within 255 to 257 °C.

Take `Nc1ccc(S(=O)c2ccccc2)cc1[N+](=O)[O-]` (configuration not stated): the melting point fell in the range of 146 to 147 °C.

The compound `CCCCC(=O)CC1c2ccccc2C(=O)N1c1ccc2ccc(OC)nc2n1` (configuration not stated) gave a melting point of 161 °C.

For the compound `CC(C)(C)CNc1cc(NCC(C)(C)C)nc(Cl)n1`, the melting point lay in the range of 178 to 185 °C.

Compound `CC=COC(=O)C1(S(=O)(=O)C(C)(C)C)C=CC=CC1C[C@H](N)C(=O)O` (some centres not stated) showed a melting point of 88 to 89.5 °C.

In turn, `COc1ccc([C@@H]2CCc3cc(OC)ccc3[C@@H]2CCCO)cc1` (relative stereo) displayed a melting point of 99 °C.

For `CS(=O)(=O)c1ccc(C(=O)c2cc(-c3ccc(Cl)cc3)c(N3CCOCC3)s2)cc1`, the melting point was 242 to 243 °C.

The compound `Cn1c(COc2ccc(CC3SC(=O)NC3=O)cc2)nc2ccc(Oc3ccc(NC(=O)Nc4ccc(C(F)(F)F)cc4)cc3)cc21` (configuration not stated) had a melting point of 179 to 180 °C.

Consider `COc1ccc(CN2CCC(c3cn(Cc4ccoc4)c4ncccc34)CC2)cc1C(=O)O`, for which the melting point lay in the range of 230 to 232 °C.

As to `N#Cc1nc2cc(Cl)c3cccnc3c2o1`, the melting point was in the range of 214 to 215 °C.

`Cc1oc2c(C)cc(C(=O)O)cc2c1C` showed a melting point of 235 to 237 °C.

For `Cc1ccc(S(=O)(=O)NC(=O)OCCc2ccc(-n3c(CCC(=O)c4ccccn4)nc4cc(C(F)(F)F)c(Cl)cc43)cc2)cc1`, the melting point amounted to 234 °C.

The compound `CCC(c1ccc(NC(=O)Cc2ccccc2C)c([N+](=O)[O-])c1)n1ccnc1` (configuration not stated) returned a melting point of 122 °C.

`C[C@@H]([C@H]1CO1)[C@](O)(Cn1cncn1)c1ccc(F)cc1F` (relative stereo) returned a melting point of 160 to 180 °C.

Take `CCCCCCCCCCCCSCCCc1cc(C(C)(C)C)c(O)c(C(C)(C)C)c1`: the melting point was in the range of 26 to 27 °C.

The compound `CN(C)c1cc(CO)ncc1F` came in with a melting point of 80 to 82 °C.

With `c1ccc2c(c1)CC(CN1CCN(c3ccc4c(c3)CCO4)CC1)C2`, the melting point was 180 to 182 °C.

`CCC1(C)CC(O)C2(C)CCC3c4ccc(O)cc4CCC3C12` (configuration not stated): the melting point fell in the range of 132 to 136 °C.

For the compound `O=C(OCC1OC(n2ccc(=O)[nH]c2=O)C(OC(=O)c2ccccc2)C1OC(=O)c1ccccc1)c1ccccc1` (configuration not stated), the melting point was 143 to 144 °C.

For `COc1ccccc1N(CN1C(=O)CSC1=O)C(=O)CCl`, the melting point was 188 to 191 °C.

As for `Nc1cccnc1-c1ccc2[nH]nc(Nc3nccs3)c2c1`, the melting point was 282 to 283 °C.

As to `O=c1cc(-c2ccncc2)nc2n1CCC(c1ccncc1)N2CC(O)c1cccc(Br)c1` (configuration not stated), the melting point is 190 to 192 °C.

The compound `COc1cc(C=O)ccc1OCC(=O)OC(C)(C)C` came in with a melting point of 86.8 to 90 °C.

`O=C(c1cccs1)c1cccc(O)c1C(=O)O` registered a melting point of 168 to 170 °C.

Take `COc1ccc(S(=O)(=O)N2C(=O)C(O[Si](C)(C)C)(c3ccccc3C(F)(F)F)c3cc(Cl)ccc32)c(OC)c1` (configuration not stated): the melting point lay within 144 to 145 °C.

In turn, `COc1cccc2c(CCCCNC3COc4c(F)ccc(C(N)=O)c4C3)coc12` (configuration not stated) gave a melting point of 138 to 141 °C.

As to `C=CCOc1ccc(-c2ccc(C(=O)OCC)cc2)cc1`, the melting point was in the range of 89 to 92 °C.

The compound `CC(=O)O[C@@](Cn1cncn1)(c1ccccc1F)[C@@H](C)n1ccnn1` yielded a melting point of 133 to 134 °C.

In turn, `CC1(C(=O)N2C[C@H](S(=O)(=O)c3ccc(OCC(F)(F)F)cc3C(F)(F)F)C[C@H]2C(=O)NC2(C#N)CC2)CC1` displayed a melting point of 126 to 127 °C.

Consider `O=C(O)c1ccc(-c2ccc3nnn(Cc4c(F)ccc(F)c4Cl)c3n2)cc1F`, for which the melting point lay within 211 to 213 °C.

`Cc1nc(C(=O)NC23CC4CC(CC(C4)C2)C3)cn1-c1ccccc1`: the melting point fell in the range of 207 to 210 °C.

With `O=C(COc1cccc(-n2nc(-c3ccc(F)cc3)c3cccnc32)c1)N1CCOCC1`, the melting point fell in the range of 141 to 143 °C.

`Cc1cc(C)cc(C(=O)N2CCN(C(=O)CBr)C(c3ccc(Cl)c(Cl)c3)C2)c1` (racemic) returned a melting point of 68 to 71 °C.

On to `COc1cccc2c1CC(N(CCCc1cn(C)c3ccc(F)cc13)CC1CC1)CO2` (configuration not stated), for which the melting point was 86 °C.

In the case of `COC(=O)C(Cc1ccccc1)NC(=O)C(CC(=O)O)NC(=O)C(N)C(C)C(=O)O` (configuration not stated), the melting point lay within 172 to 175 °C.

The compound `Nc1cc(I)cc(CF)c1` showed a melting point of 48.5 to 50 °C.

Turning to `Nc1cc(Cl)cc(Cc2cc(Cl)cc(N)c2O)c1O`, the melting point was 212 to 215 °C.

Take `CC(=O)Oc1ccc(-c2c(C)c3cccc(OC(C)=O)c3oc2=O)c(OC(C)=O)c1`: the melting point fell in the range of 119 to 120 °C.

`O=C(O)CCCCCCCCCCn1nc(-c2ccccc2)c(-c2ccccc2)c1-c1ccccc1` yielded a melting point of 81.5 to 84 °C.

The compound `CC(C)(C)Sc1ssc(=S)c1Cl` returned a melting point of 45 °C.

`CNc1nc(C)c(-c2nc3ccccc3c(=O)n2-c2ccc(Cl)cc2)s1` registered a melting point of 195 to 197 °C.

`COc1cc(Nc2c(C#N)cnc3cc4c(cc23)ncn4CCN2CCOCC2)c(C)cc1Cl`: the melting point was 246 to 248 °C.

In turn, `CCCC[C@H](NC(=O)[C@H](CC(C)C)NC(=O)c1ccccc1C(F)(F)F)C(=O)CSCc1ccco1` yielded a melting point of 102 to 106 °C.

In the case of `CC(C)N1Cc2cc(S(C)(=O)=O)ccc2N(CCN2CC=C(c3c[nH]c4cc(F)ccc34)CC2)S1(=O)=O`, the melting point lay in the range of 118 to 120 °C.

For the compound `CNC(=S)N(C)c1cncc(C(F)(F)F)c1`, the melting point lay within 86 to 90 °C.

For the compound `CC(C)[C@@H](NS(=O)(=O)N1CCC(Oc2ccc(Cl)cn2)CC1)C(=O)NO`, the melting point was in the range of 97 to 98.4 °C.

On to `O=C(CC(F)=C(F)F)NNC(=O)CC(F)=C(F)F`, for which the melting point was in the range of 191 to 193 °C.

As to `CCCc1c(OCCCCCCC2(C)CC(=O)c3ccc(OCC(=O)O)c(CCC)c3O2)ccc(C(C)=O)c1O` (configuration not stated), the melting point fell in the range of 120 to 125 °C.

Compound `COc1ccc2nc(CO)n(C)c2n1` returned a melting point of 138 to 140 °C.

Consider `CC(OC(C)c1ccc(-c2ccc(Cl)cc2)cc1)C(=O)O` (configuration not stated), for which the melting point fell in the range of 144 to 146 °C.

For `CC(=O)OCC(C)(C)CS(N)(=O)=O`, the melting point lay within 106 to 109 °C.

As to `CC(C)c1nc(COCc2ccccc2)n(C(C)F)c1Sc1cc(Cl)cc(Cl)c1` (configuration not stated), the melting point is 131 to 132 °C.

The compound `Nc1onc2c1CCC2` displayed a melting point of 135 °C.

Compound `COCCn1cc2c(n1)c(N)nc1ccccc12` returned a melting point of 230 to 231 °C.

The compound `CN(Cc1ccc(NC(=O)C2=Cc3cc(-c4ccc(N5CCCCC5)cc4)ccc3CCC2)cc1)C1CCOCC1` gave a melting point of 170 to 171 °C.

In turn, `Cc1ccc(Cl)c(Nc2ccccc2-c2noc(=O)[nH]2)c1Cl` had a melting point of 209 to 210 °C.

In turn, `Cc1nn(-c2cc3nc(S)sc3cc2F)c(=O)n1C` had a melting point of 299 to 301 °C.

Compound `NCCOc1ncc(Cl)c(N)c1Cl` showed a melting point of 115 to 116 °C.

`CCCCCC(=O)OC(C)c1ccc(-c2ccc(C(=O)O)cc2)cc1` (single isomer, unassigned; (+)) came in with a melting point of 133 to 135 °C.

Compound `COc1ccc2cc(C(=O)O)oc2c1` displayed a melting point of 208 to 211 °C.

`NS(=O)(=O)c1cc2ccc(O)cc2o1`: the melting point was in the range of 185 to 187 °C.

In turn, `O=C(CCCc1ccccc1)N(O)Cc1ccccc1` came in with a melting point of 72 to 74 °C.

As to `CCCSc1cc(C(=O)CCC(=O)c2cc(OC)c(OC)c(OC)c2)cc(OC)c1OCc1ccccc1`, the melting point lay within 114 to 115 °C.

`COc1ccccc1Sc1c(O)nc[nH]c1=O` registered a melting point of 291 °C.

Take `Cc1ccc(C=C2CCN(C(=O)c3nc4ccc(O)cc4[nH]3)CC2)cc1`: the melting point was 82 °C.

In turn, `CN1C(=O)CC[C@]2(C)c3ccc(-c4cc5ccccc5c5ccccc45)cc3CC[C@@H]12` came in with a melting point of 218 to 220 °C.

Compound `CCCCC(=O)c1c(-c2ccc3cc(OCC(=O)OCC)ccc3c2)oc2ccc(Cl)cc12` showed a melting point of 80 to 83 °C.

On to `NCCN1CCC(Nc2nc3ccccc3n2Cc2ccnc3ccccc23)CC1`, for which the melting point was determined as 196 °C.

In turn, `CC(C)NC1=NS(=O)(=O)c2ccc(C(C)C)cc2N1` came in with a melting point of 237 to 239 °C.

Consider `COc1cccc(C2C=C(C)NC(CN3C(=O)c4ccccc4C3=O)=C2)c1[N+](=O)[O-]` (configuration not stated), for which the melting point is 98 °C.

For the compound `CCOC(=O)COc1ccc2ncnc(Nc3ccc(F)c(Cl)c3)c2c1`, the melting point lay in the range of 161 to 163 °C.

In turn, `Cc1nc(-n2cnn(Cc3ccc(F)cc3)c2=O)sc1CO` had a melting point of 164 to 166 °C.

The compound `COC(=O)c1ccc2c(c1)OCCO2` yielded a melting point of 43 to 45 °C.

Take `CC(=O)Oc1ccc(C2COc3c(ccc(OC(C)=O)c3C)C2O)cc1` (configuration not stated): the melting point was 135 to 137 °C.

Turning to `COc1ccc(C#Cc2cc3ncc(C#N)c(Nc4cc(OC)c(Cl)cc4Cl)c3s2)cc1`, the melting point is 249 to 250 °C.

With `COC(=O)NCCc1ccc(OCC(O)CNC(C)C)nc1` (configuration not stated), the melting point fell in the range of 97 to 99 °C.

With `N[C@@H](CC(C(=O)O)=C1CCCC1)C(=O)O`, the melting point was determined as 205 °C.

Consider `Cc1ccsc1C(=COCCN1CCC[C@@H](C(=O)O)C1)c1sccc1C`, for which the melting point lay in the range of 55 to 70 °C.
